One series relates to Hepatitis B virus. The following applies: Chang et al., 1992; cited from earlier work.
For series [1], the system named is human immunodeficiency virus (HIV). As to conditions: Larder et al., 1990, cited from earlier work.
Series [2] deals with Hepatitis B viral infections. As to conditions: chronic HBV infection; foscarnet in fulminant hepatitis; cited from earlier work.
Series [3] is described as follows: Cellular toxicity in T-lymphoblastoic cell line (CEM), cell numbers 3 days post treatment. In kind it is cell-based. As to conditions: human; CEM cells, 3 days; read-out: Cytotoxicity CEM Cells ID50. As to the method: (§1) To determine the cellular toxicity of the present compounds, the T-lymphoblastoic cell line (CEM) was used. Cells were subjected to varying concentrations of the drug(s) and cell numbers were determined 3 days post treatment by the method described by Chen, C-H and Cheng, Y-C J. Biol. Chem., 264, 11934 (1989). Concentrations of the drug which would result in 50% killing of the cell populations were determined from the plot generated by representing cell numbers corresponding to the individual drug concentrations.

The next series concerns HIV-1 (HTLV-IIIB Strain). The series is described as follows: Anti-HIV drug susceptibility assay in MT-2 cells (MTT dye reduction). The class given is cell-based. As to conditions: for IC50: MT-2 cells; for Anti-HIV activity compared with ddC: in words. As to the method: Drug susceptibility assay for determining the effectiveness of the compounds of the present invention against HIV in MT-2 cells is a modification of the assay described in Mellors, et al., Molecular Pharmacology, 41, 446 (1992). Drug-mediated inhibition of virus-induced cell toxicity was measured by the A595 of MTT ([3-I 4,5-dimethyl thiazol-2-yl]-2,3-diphenyltetrazolium bromide) (Sigma M-2128). Triplicate wells of a 96 well plate which contains 1×10^4 MT2 cells (AIDS-repository) were infected with HIV-1 (HTLV-IIIB Strain-R.C. Gallo) at a multiplicity of 0.01 TCID50 /cell. MT-2 cells in RPMI 1640 media supplemented with 10% dialysized fetal bovine and 100 ug/ml Kanamycin were infected with virus and immediately added to serial dilution of the drug. After 5 days, 20 ul of MTT dye (2.5 mg/ml in PBS) was added per well. At the end of a four hour incubation period 150 ul of acidified 2-propanol with NP-40 non-ionic detergent was added. After the crystals of dye dissolve (usually 1-2 days), the plates are read on a micro-plate reader. Using this MTT-dye reduction method (as set forth by Larder, et al., Antimicrobial Agents and Chemotherapy, 34, 436 (1990), the percentage of protection can be calculated using the formula [(a-b/c-b)×100] in which a=A595 of drug treated cells, b is […] and c is the A595 of the non-drug infected cells.
A general note: Formazan colour is commonly taken as a measure of viable cells.

The test system of another series is HBV. The series is described as follows: Inhibition of HBV replication (secreted viral DNA, Southern analysis) in 2.2.15 cells. In kind it is cell-based, Hepatitis B virus (in human hepatoma cell line 2.2.15). As to conditions: for IC50: Hepatitis B virus, 144 h, 2.2.15 cells, read-out: Anti-HBV ID50; for Activity against HBV, comparison / Inhibition of HBV DNA replication: in words. Here is the method:
The biological activity of the present compounds was assessed as described by Doong, S-L, et al., Proc. Natl. Acad. Sci. U.S.A 88, 8495-8499 (1991). The human hepatoma cell line carrying the HBV (designated 2.2.15) kindly provided by Dr. G. Acs was used in the study. Price, et al., Proc. Natl. Acad. Sci. U.S.A. 86, 8541 (1989). Briefly, six day-old cultures were treated with varying concentrations of the drug in the culture medium (Minimum essential medium with Earl's salts and 10% fetal bovine serum). The drug was left in the culture medium for a period of 3 days after which period the medium was aspirated and fresh medium containing the same concentration(s) of the drug was added. At the end of the subsequent 3 day period the culture medium was harvested. The culture medium was processed for obtaining the virions by the polyethylene glycol precipitation method (Doong, et al., supra). Viral DNA thus recovered from the secreted particles was subjected to Southern analysis. Inhibition of the viral replication was determined by the comparison of the viral DNA from drug-treated versus control cultures not treated with the drug.

For series [4] the following is noted: in words; cited from earlier work.
The next series concerns CEM Cells. The series is described as follows: Cellular toxicity in T-lymphoblastoic cell line (CEM), cell numbers 3 days post treatment. In kind it is cell-based. The following applies: in words, β-L-ddC / β-L-FddC versus ddC. Here is the method:
as §1

A short description of another series: in vitro. As to conditions: human, cem cells.
Series [5] relates to mitochondrial DNA (mt DNA).
Protocol: (§2) The effects of the various drug concentrations on mitochondrial DNA (mt DNA) was evaluated by the method described by Chen and Cheng, supra. CEM cells treated with varying concentrations of the drug were collected by centrifugation. After washing the cells with phosphate buffered saline, cells were lysed by suspending the cells in 10 mM Tris-HCl (pH 7.0) and repeating freeze thaw cycles. The resulting cells were then subjected to RNase A treatment at a final enzyme concentration of 10 ug/ml, followed by proteinase K treatment (100 ug/ml) for 1 hour. The DNA thus obtained by this procedure was then immobilized on nylon membrane after the addition of 0.8 vol of NaI and boiling for 10 minutes. Hybridization of the resulting DNA to a mt DNA specific probe was performed by following the method of Doong, S-L, supra and autoradiography was also performed. Quantitative estimates were obtained by scanning densitometer. The blots were stripped of the mtDNA probe and rehybridized to human Alu sequence probe to determine the amounts of DNA for normalization and estimation of absolute amounts of the mt DNA.
[6] abbreviates: Human immunodeficiency virus 1, MT2, 120 h, HIV-1 HTLV-IIIB, Table 1, read-out: Anti-HIV ID50.
Where [7] appears, read: Human immunodeficiency virus 1, IIIB, MT2, 120 h, read-out: ID50 concentration required to inhibit viral replication (HIV).

“Also recorded” adds a separate entry of the source. Read-outs that look alike come from different tables or passages of the source.

Protocol for in vitro: as §2

In the case of `Nc1nc(=O)n([C@@H]2CS[C@H](CO)O2)cc1F` (relative stereo) [(±)5-FSddC], the “Activity against Hepatitis B virus in culture” value (“Activity … in culture” for short) in the series on Hepatitis B virus is recorded as “potent activity”.
On to `Nc1ccn([C@@H]2CS[C@H](CO)O2)c(=O)n1` (relative stereo) [(±) SddC, (+) and (-)-2',3'-Dideoxy-3'-thiacytidine], for which the “Activity … in culture” value in the series with Hepatitis B virus is given as “potent inhibitors of Hepatitis B virus”.
As to `Nc1ccn([C@H]2CS[C@@H](CO)O2)c(=O)n1` (stereo in doubt) [(-)isomer, (-)-2',3'-Dideoxy-3'-thiacytidine], in the series with Hepatitis B virus, the “Activity … in culture” value is reported as “potent activity” and the Toxicity result is “relatively low toxicity”.
In the case of `[N-]=[N+]=N[C@H]1C[C@H](n2ccc(=O)[nH]c2=O)O[C@@H]1CO` [3'-azido-2',3'-dideoxyuridine], the “Activity against human immunodeficiency virus” value in series [1] was “significant activity”.
As for `Nc1ncnc2c1ncn2[C@H]1C[C@H](F)[C@@H](CO)O1` [3'-fluoro-2',3'-dideoxyadenosine], in series [1], the “Activity against human immunodeficiency virus” value was “significant activity”.
`Cc1cn([C@H]2C[C@H](F)[C@@H](CO)O2)c(=O)[nH]c1=O` [3'-fluoro-3'-deoxythymidine]: the “Activity against human immunodeficiency virus” value in series [1] is given as “significant activity”.
On to `Cc1cn([C@H]2C[C@H](N=[N+]=[N-])[C@@H](CO)O2)c(=O)[nH]c1=O` [AZT, 3'-azido-3'deoxythymidine], for which, in series [2], the “Success of therapy of hepatitis B” value is on record as “little, if any, success”.
Take `Nc1nc2c(ncn2[C@H]2C=C[C@@H](CO)C2)c(=O)[nH]1` [Carbovir, carbocyclic analog of 2',3'-dideoxy-2',3'-didehydroguanosine]: the “Activity against human immunodeficiency virus” value in series [1] is reported as “significant activity”.
Regarding `Nc1ccn([C@H]2C=C[C@@H](CO)O2)c(=O)n1` [Compound D4C, 2',3'-dideoxy-2',3'-didehydrocytidine], the “Activity against human immunodeficiency virus” value in series [1] is listed as “significant activity”.
Turning to `Cc1cn([C@H]2C=C[C@@H](CO)O2)c(=O)[nH]c1=O` [Compound D4T, 3'-deoxy-2',3'-didehydrothymidine], in series [1], the “Activity against human immunodeficiency virus” value was “significant activity”.
`OC[C@@H]1CC[C@H](n2cnc3c(O)ncnc32)O1` [DDI, 2',3'-dideoxyinosine]: the “Activity against human immunodeficiency virus” value in [1] is reported as “significant activity”.
For the molecule `Nc1nc2c(ncn2COCCO)c(=O)[nH]1` [acyclovir], in [2], the “Success of therapy of hepatitis B” value was “little, if any, success”.
On to `Nc1ncnc2c1ncn2[C@@H]1O[C@H](CO)[C@@H](O)[C@@H]1O` [adenine arabinoside], for which the “Success of therapy of hepatitis B” value in [2] was “limited success”.
In the case of `Nc1nc(=O)n([C@H]2CC[C@H](CO)O2)cc1F` [alpha-L-FddC, 1(2,3-dideoxy-alpha-L-ribofuranosyl)-5-fluorocytosine], the CC50 at 72 h in series [3] is greater than 100000 nM. The IC50 amounted to 300 nM in the series on HIV-1 (HTLV-IIIB Strain) (setting [6]) and 500 nM in the series with HBV.
On the same counts, the results for `Nc1ccn([C@H]2CC[C@H](CO)S2)c(=O)n1` [alpha-L-ddSC, 1(2,3-dideoxy-4-thio-alpha-L-ribofuranosyl) cytosine] are greater than 100000 nM, greater than 100000 nM and greater than 500 nM.
For `Nc1ncnc2c1ncn2[C@@H]1O[C@H](COP(=O)(O)O)[C@@H](O)[C@@H]1O` [ara-AMP], the “Success of therapy of hepatitis B” value in series [2] is on record as “limited success”.
With `Nc1ccn([C@H]2CC[C@@H](CO)O2)c(=O)n1` [ddC, 1-(2,3-dideoxy-beta-D-ribofuranosyl)cytosine, reference compound], the Dose limiting toxicity result in [4] is listed as “severe neuropathy”. In series [3], the CC50 at 72 h was found to be 28000 nM. In the series with CEM Cells, the “Cellular cytotoxicity, comparison with ddC” value (from here on “Cellular cytotoxicity”) was “much more cytotoxic; also recorded: more cytotoxic than β-L-FddC”. Moreover, the figures for the “Activity against human immunodeficiency virus” value in [1] and in series [1] (listed as DDC) were “among the most potent inhibitors of HIV” and “significant activity”, respectively. Moreover, the IC50 turned out to be 28 nM in the series with HIV-1 (HTLV-IIIB Strain) (setting [7]), 22 nM in “in vitro” and 2800 nM in the series on HBV. Also, in the series on HIV-1 (HTLV-IIIB Strain), the “Anti-HIV activity compared with ddC” value was “less active against HIV”.
For the molecule `O=C(O)P(=O)(O)O` [foscarnet], the “Success of therapy of hepatitis B” value in series [2] is listed as “little, if any, success”.
As to `Nc1nc(=O)n([C@@H]2CC[C@H](CO)O2)cc1F` [β-L-FddC, 1-(2,3-dideoxy-beta-L-ribofuranosyl)-5-fluorocytosine], the CC50 at 72 h in series [3] was 67000 nM. In addition, the “Cellular cytotoxicity” value with CEM Cells is listed as “considerably less”. Further, the “Difference of anti-HIV ID50, β-L-FddC versus ddC” value in the series on HIV-1 (HTLV-IIIB Strain) (0.007 vs 0.028 micromolar) is listed as 4 fold. Moreover, in the series with HIV-1 (HTLV-IIIB Strain) (setting [7]), the IC50 worked out at 7 nM. Besides, the “Anti-HIV activity compared with ddC” value in the series with HIV-1 (HTLV-IIIB Strain) was “significantly more effective than ddC; also recorded: several fold higher activity against HIV”. In [5], the “Effect on host mitochondrial DNA” value was “relatively little effect” and the “Toxicity associated with dose limiting neuropathy” value is “virtually no toxicity associated with dose limiting neuropathy”. For the same molecule, the IC50 in “in vitro” was greater than 100000 nM. For the same molecule, in the series on HBV, the IC50 is 10 nM; the “Activity against HBV, comparison” value was “several fold higher activity against HBV”; the “Inhibition of HBV DNA replication” value was “efficiently inhibited”.
Regarding `Nc1ccn([C@@H]2CC[C@H](CO)O2)c(=O)n1` [β-L-ddC, 1-(2,3-dideoxy-beta-L-ribofuranosyl)cytosine], the CC50 at 72 h in [3] turned out to be 70000 nM. The “Cellular cytotoxicity” value with CEM Cells is on record as “considerably less”. Besides, the IC50 was 350 nM in the series on HIV-1 (HTLV-IIIB Strain) (setting [6]), greater than 100000 nM in the series “in vitro” and 10 nM in the series on HBV. The “Activity against HBV, comparison” value with HBV was “several fold higher activity against HBV”. Moreover, the “Inhibition of HBV DNA replication” value in the series with HBV is listed as “efficiently inhibited”.
For `Nc1ccn([C@@H]2CC[C@H](CO)S2)c(=O)n1` [β-L-ddSC, 1-(2,3-dideoxy-4-thio-beta-L-ribofuranosyl)cytosine], the CC50 at 72 h in series [3] was greater than 100000 nM. For the same molecule, the IC50 was 70000 nM with HIV-1 (HTLV-IIIB Strain) (setting [6]) and greater than 500 nM with HBV.
Take interferon alpha: in [2], the “Success of therapy of hepatitis B” value is “limited success”.

The values are drawn from US5627160A, “L-2',3'-dideoxy nucleoside analogs as anti-hepatitis B (HBV) and anti-HIV agents” (priority 1993, dated 1997).
